Here are results for 12 compounds from patent publication US9169241B2, “Quinolinyloxyphenylsulfonamides” (Max-Planck-Gesellschaft Zur Forderung der Wissenschaften …, priority 2009, dated 2015).

Some results are limits rather than exact numbers.

In series [1] the target is T1, wild type AXL (wtAXL) receptor tyrosine kinase (Homo sapiens, UniProt P30530).
T1 construct: WtAXL cDNA was cloned into vector pLXSN(ESK) and transfected into Phoenix E packaging cells; expressed in transfected cells; host or cells: NIH3T3 N7 (mouse fibroblasts), retrovirally infected, clone 22
T1 sequence (P30530 26-894): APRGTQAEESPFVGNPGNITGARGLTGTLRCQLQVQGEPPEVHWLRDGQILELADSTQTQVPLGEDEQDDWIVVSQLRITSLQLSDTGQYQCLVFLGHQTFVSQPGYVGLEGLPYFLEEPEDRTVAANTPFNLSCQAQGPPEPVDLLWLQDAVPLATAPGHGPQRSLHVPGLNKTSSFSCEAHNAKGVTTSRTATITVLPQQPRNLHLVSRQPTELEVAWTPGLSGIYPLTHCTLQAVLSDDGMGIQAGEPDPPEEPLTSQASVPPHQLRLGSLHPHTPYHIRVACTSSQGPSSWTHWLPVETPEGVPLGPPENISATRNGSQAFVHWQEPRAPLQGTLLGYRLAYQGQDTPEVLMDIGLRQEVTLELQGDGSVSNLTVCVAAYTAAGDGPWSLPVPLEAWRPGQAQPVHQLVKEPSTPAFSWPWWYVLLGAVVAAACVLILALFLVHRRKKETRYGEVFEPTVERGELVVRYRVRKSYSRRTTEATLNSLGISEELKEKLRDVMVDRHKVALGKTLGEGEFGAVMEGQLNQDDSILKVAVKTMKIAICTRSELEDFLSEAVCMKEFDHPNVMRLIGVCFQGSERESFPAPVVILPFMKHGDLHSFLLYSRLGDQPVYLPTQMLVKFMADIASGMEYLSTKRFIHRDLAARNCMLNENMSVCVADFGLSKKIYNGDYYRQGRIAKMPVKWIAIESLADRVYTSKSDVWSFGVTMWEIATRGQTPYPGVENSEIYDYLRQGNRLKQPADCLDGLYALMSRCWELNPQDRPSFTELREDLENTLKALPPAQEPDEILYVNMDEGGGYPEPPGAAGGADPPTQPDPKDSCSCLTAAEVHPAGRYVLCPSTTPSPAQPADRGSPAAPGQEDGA
In words: NIH-3T3-AXL cellular kinase assay (pY-AXL-ELISA). It counts as cell-based. The following applies: NIH-3T3-AXL (clone 22) cells, serum depleted, compounds 1 h; Table Ia. The protocol:
WtAXL cDNA was cloned into vector pLXSN(ESK) and transfected into Phoenix E packaging cells. The viral supernatant was collected and used to infect target cells NIH3T3 N7. Monoclonal NIH3T3-AXL cell lines stably expressing wtAXL were generated by selecting retrovirally infected cells in medium containing puromycin (2 μg/ml) and subsequent clonal separation.
Serial dilutions of compounds were added, and the cells were further incubated for 1 h. Cells were washed with PBS and lysed on ice in 500 μl lysis buffer (50 mM HEPES (pH 7.5), 150 mM NaCl, 1 mM EGTA, 10% Glycerol, 1% Triton X-100, 100 mM NaF, 10 mM Na4P2O7.10H2O, 1 mM Na3VO4, 1 mM phenylmethylsulfonyl fluoride, and […]) for 15 min. The cell lysate were used for phosphotyrosine AXL enzyme-linked immunosorbant assay (pY-AXL-ELISA). […] Subsequently 96-well plates were blocked with PBS-0.05% Tween®20+10% FBS for 4 h at 37° C. Plates were washed 5 times with PBS-0.05% Tween®20 and 95 μl of lysate was transferred per well for incubation overnight at 4° C. Plates were washed 5 times with PBS-0.05% Tween®20 (Sigma, Steinheim, Germany). For detection of phosphorylated tyrosine we used homemade biotynilated 4G10-antibody (0.5 μg/ml) in PBS-0.05% Tween®20+10% FBS (100 μl/well) and incubated the 96-well plate for 2 h at room temperature. The anti-phosphotyrosine mouse monoclonal antibody 4G10 was biotynilated with Sulfo-NHS®-Biotin according to the suppliers protocol (Pierce, Rockford, Ill., USA) and purified by Mirco Bio-Spin 6 Chromatograpy Columns (BIO RAD Laboratories, Inc., Hercules, Calif., USA) using PBS as diluent. Plates were washed 5 times with PBS-0.05% Tween®20. For biding to biotin Alkaline Phosphatase Conjugated Strepavidin SA110 (Millipore, Billerica, Mass., USA) (1:4000) was used in PBS-0.05% Tween20+10% FBS (100 μl/well) and incubated for 30 min at room temperature. Plates were washed 5 times with PBS-0.05% Tween20. For fluorimetric detection of alkaline phosphatase AttoPhos Substrate Set (Roche diagnostics GmbH, Mannheim, Germany) was used (100 μl/well). The fluorimetric signal was quantified after 90 min at 430/560 nm wavelength using a TECAN Ultra Evolution plate reader (Tecan Deutschland GmbH, Crailsheim, Germany).
For orientation: In an ELISA, binding on a coated surface is turned into a signal by an enzyme label.

The subject of series [2] is Hs578T. In words: Cell vitality assay (ATP assay, CellTiter-Glo). It counts as cell-based. The following applies: Homo sapiens, Hs-578T; HS578T cell line, 72 h; Table Ib; read-out: IC50 ATP-Assay HS578T after 72 h. In outline:
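Viability is estimated from cellular ATP after 72 h of compound treatment at 1000 cells per well. The dilution series runs 12.5, 6.25, 3.125, 1.56, 0.78, 0.39 and 0.195 μM. Half-maximal values are expressed against DMSO-treated wells.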

Series [3] concerns Hs578T. Briefly: Wound healing migration assay. The following applies: Homo sapiens, Hs-578T; HS578T cell line; Table Ib. It counts as cell-based. In a few lines: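 Compound exposure at 12.5, 6.25 and 3.125 μM, with DMSO control, on scratch-wounded monolayers (150000 cells/24 well, overnight). Wound closure imaged by microscopy, fixed with crystal violet after 48 h or 72 h depending on cell line; IC50 is the concentration giving 50% wound size between t0 and t48/t72.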

Series [4] deals with Hs578T. Briefly: Matrigel outgrowth assay/branching assay. The format is cell-based. The following applies: Homo sapiens, Hs-578T; HS578T cell line; Table Ib; read-out: Total branching inhibition in Matrigel HS578T. In a few lines: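 Matrigel 3 mg/ml, polymerized 1 h 37° C; 5000 cells/well + cmpd 3.125/1.56/0.78 μM or DMSO. Imaged 48/72/96 h, 5× objective. Positive = total branching block.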

As to `COc1cc2c(Oc3ccc(NS(=O)(=O)c4ccc(C)s4)cc3F)ccnc2cc1OCCCN1CCCC(C)C1` (stereo not drawn) [Example 62, 5-Methyl-thiophene-2-sulfonic acid (3-fluoro-4-{6-methoxy-7-[3-(3-methyl-piperidin-1-yl)-propoxy]-quinolin-4-yloxy}-phenyl)-amide], the melting point (usually the temperature, or range, at which the solid turns liquid) is 99 to 101 °C. The IC50 in series [1] was under 0.5 µM. In addition, in the series with Hs578T [2], the IC50 is at most 12.5 µM. The IC50 in the series on Hs578T [3] fell in the range of 12.5 to 50 µM. For the same compound, in the series on Hs578T [4], the IC50 fell in the range of 10 to 25 µM.

For the compound `COc1cc2c(Oc3ccc(NS(=O)(=O)c4c(Cl)csc4Cl)cc3F)ccnc2cc1OCCCN1CCCC(C)C1` (stereo not drawn) [Example 64, 2,4-Dichloro-thiophene-3-sulfonic acid (3-fluoro-4-{6-methoxy-7-[3-(3-methyl-piperidin-1-yl)-propoxy]-quinolin-4-yloxy}-phenyl)-amide], the melting point is 119 to 121 °C. The compound also had an IC50 in series [1] of under 0.5 µM. For the same compound, the IC50 in the series on Hs578T [2] was at most 12.5 µM. The compound also returned an IC50 in the series with Hs578T [3] of at most 12.5 µM. Besides, the IC50 in the series with Hs578T [4] fell in the range of 10 to 25 µM.

Regarding `COc1cc2c(Oc3ccc(NS(=O)(=O)c4ccsc4)cc3F)ccnc2cc1OCCCN1CCCC(C)C1` (stereo not drawn) [Example 65, Thiophene-3-sulfonic acid (3-fluoro-4-{6-methoxy-7-[3-(3-methyl-piperidin-1-yl)-propoxy]-quinolin-4-yloxy}-phenyl)-amide], the melting point was 174 to 176 °C. The IC50 in series [1] is under 0.5 µM. Besides, the IC50 in the series on Hs578T [2] is at most 12.5 µM. The compound also had an IC50 in the series with Hs578T [3] of at most 12.5 µM. Moreover, in the series with Hs578T [4], the IC50 lay within 10 to 25 µM.

`COc1cc2c(Oc3ccc(NS(=O)(=O)c4csc5ccccc45)cc3F)ccnc2cc1OCCCN1CCCC(C)C1` (stereo not drawn) [Example 67, Benzo[b]thiophene-3-sulfonic acid (3-fluoro-4-{6-methoxy-7-[3-(3-methyl-piperidin-1-yl)-propoxy]-quinolin-4-yloxy}-phenyl)-amide] displayed a melting point of 126 to 128 °C. Besides, in series [1], the IC50 is under 0.5 µM. Besides, in the series on Hs578T [2], the IC50 was at most 12.5 µM. Also, in the series with Hs578T [3], the IC50 was at most 12.5 µM. Moreover, the IC50 in the series on Hs578T [4] is at most 10 µM.

On to `COc1cc2c(Oc3ccc(NS(=O)(=O)c4cc(Cl)cc(Cl)c4OC)cc3F)ccnc2cc1OCCCN1CCOCC1` [Example 76, 3,5-Dichloro-N-{3-fluoro-4-[6-methoxy-7-(3-morpholin-4-yl-propoxy)-quinolin-4-yloxy]-phenyl}-2-methoxy-benzenesulfonamide], for which the melting point fell in the range of 189 to 191 °C. Moreover, in series [1], the IC50 is under 0.5 µM. Further, the IC50 with Hs578T [2] is at most 12.5 µM. Further, the IC50 in the series on Hs578T [3] was in the range of 12.5 to 50 µM. Also, the IC50 in the series on Hs578T [4] fell in the range of 10 to 25 µM.

In the case of `COc1cc2c(Oc3ccc(NS(=O)(=O)c4ccccc4C(F)(F)F)cc3C)ccnc2cc1OCCCN1CCC(C)CC1` [Example 89, N-(4-{6-Methoxy-7-[3-(4-methyl-piperidin-1-yl)-propoxy]-quinolin-4-yloxy}-3-methyl-phenyl)-2-trifluoromethyl-benzenesulfonamide], the melting point lay within 165 to 167 °C. The same compound yielded an IC50 in series [1] of under 0.5 µM. Besides, the IC50 with Hs578T [2] is at most 12.5 µM. The same compound returned an IC50 in the series with Hs578T [3] of at most 12.5 µM. Besides, in the series on Hs578T [4], the IC50 was at most 10 µM.

As to `COc1cc2c(Oc3ccc(NS(=O)(=O)c4cc(Cl)ccc4Cl)cc3F)ccnc2cc1OCCN1CCOCC1` [Example 106, 2,5-Dichloro-N-{3-fluoro-4-[6-methoxy-7-(2-morpholin-4-yl-ethoxy)-quinolin-4-yloxy]-phenyl}-benzenesulfonamide], the melting point was in the range of 194 to 196 °C. In addition, the IC50 in series [1] is under 0.5 µM. The IC50 with Hs578T [2] is at most 12.5 µM. In the series on Hs578T [3], the IC50 was 12.5 to 50 µM. Further, in the series with Hs578T [4], the IC50 was 10 to 25 µM.

The compound `COc1cc2c(Oc3ccc(NS(=O)(=O)c4ccccc4Cl)cc3F)ccnc2cc1OCCN1CCOCC1` [Example 108, 2-Chloro-N-{3-fluoro-4-[6-methoxy-7-(2-morpholin-4-yl-ethoxy)-quinolin-4-yloxy]-phenyl}-benzenesulfonamide] registered a melting point of 180 to 181 °C. This compound also gave an IC50 in series [1] of under 0.5 µM. Moreover, the IC50 with Hs578T [2] is at most 12.5 µM. The compound also came in with an IC50 with Hs578T [3] of 12.5 to 50 µM. Besides, the IC50 with Hs578T [4] fell in the range of 10 to 25 µM.

Turning to `COc1cc2c(Oc3ccc(NS(=O)(=O)c4ccccc4[N+](=O)[O-])cc3F)ccnc2cc1OCCN1CCOCC1` [Example 109, N-{3-Fluoro-4-[6-methoxy-7-(2-morpholin-4-yl-ethoxy)-quinolin-4-yloxy]-phenyl}-2-nitro-benzenesulfonamide], the melting point is 129 to 131 °C. This compound also displayed an IC50 in series [1] of under 0.5 µM. The IC50 in the series with Hs578T [2] is at most 12.5 µM. In the series with Hs578T [3], this compound came in with an IC50 of 12.5 to 50 µM. Moreover, the IC50 with Hs578T [4] was in the range of 10 to 25 µM.

As for `COc1cc2c(Oc3ccc(NS(=O)(=O)c4ccccc4F)cc3Cl)ccnc2cc1OCCCN1CCN(C)CC1` [Example 111, N-(3-Chloro-4-{6-methoxy-7-[3-(4-methyl-piperazin-1-yl)-propoxy]-quinolin-4-yloxy}-phenyl)-2-fluoro-benzenesulfonamide], the melting point was in the range of 170 to 171 °C. Also, the IC50 in series [1] was under 0.5 µM. The IC50 in the series on Hs578T [2] was at most 12.5 µM. Further, the IC50 in the series on Hs578T [3] is at most 12.5 µM. Moreover, in the series with Hs578T [4], the IC50 is at most 10 µM.

In the case of `COc1cc2c(Oc3ccc(NS(=O)(=O)c4csc5ccccc45)cc3F)ccnc2cc1OCCCN1CCCCC1` [Example 113, Benzo[b]thiophene-3-sulfonic acid {3-fluoro-4-[6-methoxy-7-(3-piperidin-1-yl-propoxy)-quinolin-4-yloxy]-phenyl}-amide], the melting point was 128 to 130 °C. This compound also showed an IC50 in series [1] of under 0.5 µM. In the series on Hs578T [2], the IC50 was at most 12.5 µM. Moreover, the IC50 in the series on Hs578T [3] is at most 12.5 µM. Besides, in the series with Hs578T [4], the IC50 is at most 10 µM.

As for `COc1cc2c(Oc3ccc(NS(=O)(=O)c4csc5ccccc45)cc3F)ccnc2cc1OCCCN1CCOCC1` [Example 114, Benzo[b]thiophene-3-sulfonic acid {3-fluoro-4-[6-methoxy-7-(3-morpholin-4-yl-propoxy)-quinolin-4-yloxy]-phenyl}-amide], the melting point was in the range of 196 to 197 °C. This compound also returned an IC50 in series [1] of under 0.5 µM. Also, the IC50 in the series with Hs578T [2] is at most 12.5 µM. The IC50 with Hs578T [3] was in the range of 12.5 to 50 µM. Besides, in the series with Hs578T [4], the IC50 was 10 to 25 µM.
